The source of these data is US9630947B2, “Therapeutic compounds and related methods of use” (OTSUKA PHARMACEUTICAL CO., LTD., priority 2009, dated 2017).

This assay addresses T1, purified STEP46 enzyme (Homo sapiens, UniProt P54829).
T1 sequence (P54829 1-565): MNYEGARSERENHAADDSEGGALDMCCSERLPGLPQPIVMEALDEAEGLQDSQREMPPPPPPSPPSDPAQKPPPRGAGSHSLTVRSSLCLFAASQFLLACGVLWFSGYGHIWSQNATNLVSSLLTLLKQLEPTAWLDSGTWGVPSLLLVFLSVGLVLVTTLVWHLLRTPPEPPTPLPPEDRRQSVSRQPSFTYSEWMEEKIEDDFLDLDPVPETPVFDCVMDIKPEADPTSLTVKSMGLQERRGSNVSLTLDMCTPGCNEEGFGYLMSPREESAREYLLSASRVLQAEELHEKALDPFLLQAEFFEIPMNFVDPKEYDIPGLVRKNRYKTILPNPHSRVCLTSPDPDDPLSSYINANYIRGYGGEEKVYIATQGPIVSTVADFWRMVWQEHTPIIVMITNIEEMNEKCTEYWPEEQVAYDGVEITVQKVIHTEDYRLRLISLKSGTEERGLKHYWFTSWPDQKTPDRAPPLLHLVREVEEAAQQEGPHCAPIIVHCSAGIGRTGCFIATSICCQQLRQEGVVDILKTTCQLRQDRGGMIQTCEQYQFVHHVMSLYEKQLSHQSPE
The experiment in a line: STEP46 biochemical assay (DiFMUP fluorescence phosphatase assay). The note with it: DiFMUP 10 μM, read-out: STEP IC50. Here is the method: STEP46 Biochemical Assays
Serial dilutions of compounds were performed in 100% DMSO and 1 uL of compounds were dispensed into 384-well black polystyrene plates (Corning, NY). Compounds were incubated with 24 uL of buffer containing 50 mM Hepes, 1 mM DTT, 0.02% Brij35, 1 ng/well purified STEP46 enzyme for 30 min at room temperature. The reaction was initiated by addition of 25 uL of DiFMUP (6, 8-difluoro-4-methylumbelliferyl phosphate) (InVitrogen, CA) with a final concentration of 10 μM and incubated at 27° C. for 90 min. Final DMSO concentration is 2%. Plates were read with florescence intensity at excitation/emission of 360/460 nm using a PheraStar plate reader (BMG Labtech, NC).
Data were expressed as percentage (%) inhibition of enzyme activity. 0% inhibition is defined as the RFUs (relative fluorescence units) in the absence of compounds and 100% inhibition is defined as RFUs in the absence of STEP46 enzyme. IC50 values of compounds with inhibitory activity against STEP46 were determined by GraphPad Prism (version 4.03) using four parameter logistic equation. Some compounds act as activators. For compounds showing STEP46 enzymatic activation, data are represented as percentage of inhibition but with negative values at three representative concentrations (25, 50 and 100 uM).
With `CNc1nc(-c2cccnc2)nc2c(C)c(-c3cccc(F)c3)ccc12` [Compound 1449], the IC50 is over 10000 nM. Consider `COc1ccc2nc(-c3cccnc3)nc(Nc3nc(-c4ccccc4Cl)cs3)c2c1` [Compound 431], for which the IC50 was under 1000 nM. Next, `CNc1nc(-c2cccnc2)nc2ccc(-c3cccc(F)c3F)c(C)c12` [Compound 1285]: over 10000 nM; `CNc1nc(-c2cccnc2)nc2cc(-c3ccc(F)c(F)c3)ccc12` [Compound 1373]: 1000 to 10000 nM; `CNc1nc(-c2cccnc2)nc2ccc(-c3ccc(F)c(F)c3F)cc12` [Compound 1375]: 1000 to 10000 nM. The value for `Cc1cc(Cl)cc2c(Nc3ccccc3C(N)=O)nc(-c3cnccn3)nc12` [Compound 1226] was 1000 to 10000 nM; that for `NC(=O)c1ccccc1Nc1nc(-c2cccnc2)nc2cc(-c3ccc(F)c(F)c3)ccc12` [Compound 703] was under 1000 nM; that for `O=c1ccc2ccc(Nc3nc(-c4cccnc4)nc4ccc(-c5cccnc5)cc34)cc2[nH]1` [Compound 352] was 1000 to 10000 nM. Consider `Cc1cccc2c(Nc3cccc(C#N)c3)nc(-c3cnccn3)nc12` [Compound 1181], for which the IC50 lay in the range of 1000 to 10000 nM. The value for `COc1ccc2nc(-c3cccnc3)nc(Nc3ccc4c(c3)COC4)c2c1` [Compound 962] was under 1000 nM.

As for `CN(C)c1nc(-c2cccnc2)nc2ccc(-c3cccc(F)c3F)cc12` [Compound 1380], the IC50 was 1000 to 10000 nM. Consider `Fc1cccc(-c2ccc3c(Nc4ccc(F)c(Cl)c4)nc(-c4cccnc4)nc3c2)c1` [Compound 688], for which the IC50 was under 1000 nM. `Fc1cccc(-c2ccc3nc(-c4cccnc4)nc(Nc4ccc(F)c(Cl)c4)c3c2)c1` [Compound 634]: the IC50 lay within 1000 to 10000 nM.

Turning to `COc1ccc2nc(-c3cccnc3)nc(Nc3nc(-c4ccc(F)cc4F)cs3)c2c1` [Compound 446], the IC50 fell in the range of 1000 to 10000 nM.

On to `COc1ccc2nc(-c3cccnc3)nc(Nc3ccccc3C(=O)NCc3ccc4c(c3)CCC4)c2c1` [Compound 900], for which the IC50 fell in the range of 1000 to 10000 nM. With `COc1ccc2nc(-c3cccnc3)nc(Nc3nc(-c4ccccc4OC(F)(F)F)cs3)c2c1` [Compound 454], the IC50 was in the range of 1000 to 10000 nM. Turning to `CN(C)c1cccc(-c2ccc3c(Nc4ccc(F)c(Cl)c4)nc(-c4cccnc4)nc3c2)c1` [Compound 693], the IC50 is under 1000 nM. Turning to `Nc1nc(-c2cccnc2)nc2ccc(-c3ccccc3Cl)cc12` [Compound 1328], the IC50 is over 10000 nM. Take `FC(F)Oc1cccc(Nc2nc(-c3cnccn3)nc3ccccc23)c1` [Compound 1214]: the IC50 was 1000 to 10000 nM. Turning to `Fc1ccc(F)c(-c2ccc3c(Nc4ccc(F)c(Cl)c4)nc(-c4cccnc4)nc3c2)c1` [Compound 676], the IC50 is under 1000 nM.

Take `FC1(F)Oc2ccc(Nc3nc(-c4cncnc4)nc4ccccc34)cc2O1` [Compound 1173]: the IC50 is over 10000 nM. As for `Cc1cccc(-c2ccc3nc(-c4cccnc4)nc(Nc4ccc(F)c(Cl)c4)c3c2)c1` [Compound 632], the IC50 is under 1000 nM. Next, `Cc1cccc(CNc2nc(-c3cccnc3)nc3cc(-c4cc(F)ccc4F)ccc23)n1` [Compound 1430]: 1000 to 10000 nM; `CNc1nc(-c2cccnc2)nc2c(C)c(-c3cccc(C#N)c3)ccc12` [Compound 1453]: 1000 to 10000 nM. Next, `NC(=O)c1ccccc1Nc1nc(-c2cccnc2)nc2cc(-c3ccc(F)cc3)ccc12` [Compound 701]: 1000 to 10000 nM; `CNc1nc(-c2cccnc2)nc2ccc(-c3cc(OC)ccc3OC)cc12` [Compound 1356]: 1000 to 10000 nM; `CNC(=O)c1sc(Nc2nc(-c3cccnc3)nc3ccc(OC)cc23)nc1-c1ccccc1` [Compound 1124, 2-(6-methoxy-2-(pyridin-3-yl)quinazolin-4-ylamino)-N-methyl-4-phenylthiazole-5-carboxamide]: under 1000 nM. The value for `CNc1nc(-c2cccnc2)nc2cc(-c3ccc(F)cc3)c(C)cc12` [Compound 1404] was over 10000 nM; that for `CCOC(=O)c1sc(Nc2nc(-c3cccnc3)nc3ccc(OC)cc23)nc1-c1ccccc1` [Compound 466] was 1000 to 10000 nM; that for `COc1ccc(-c2ccc3nc(-c4cccnc4)nc(Nc4ccc(F)c(Cl)c4)c3c2)c(OC)n1` [Compound 655] was under 1000 nM. With `Clc1ccc(Nc2nc(-c3ccnnc3)nc3ccccc23)cc1Cl` [Compound 1215], the IC50 is under 1000 nM. The value for `COc1ccc2nc(-c3cccnc3)nc(Nc3nc(-c4ccccc4)c(C(N)=O)s3)c2c1` [Compound 1125] was 1000 to 10000 nM; that for `COc1ccc2nc(-c3cccnc3)nc(Nc3nc(-c4ccc(F)c(F)c4)cs3)c2c1` [Compound 445] was under 1000 nM.

For the molecule `CNc1nc(-c2cccnc2)nc2c(C)c(-c3ccc(C#N)cc3)ccc12` [Compound 1452], the IC50 is under 1000 nM. The value for `N#Cc1cccc(Nc2nc(-c3ccnnc3)nc3ccccc23)c1` [Compound 1217] was 1000 to 10000 nM; that for `NC(=O)c1ccccc1-c1ccc2c(Nc3ccc(F)c(Cl)c3)nc(-c3cccnc3)nc2c1` [Compound 683] was 1000 to 10000 nM. Next, `CNc1nc(-c2cccnc2)nc2cc(C)c(-c3ccc(OC)cc3)cc12` [Compound 1420]: 1000 to 10000 nM.

Regarding `CNc1nc(-c2cccnc2)nc2ccc(-c3ccc4sccc4c3)cc12` [Compound 1341], the IC50 fell in the range of 1000 to 10000 nM. In the case of `COc1ccc2nc(-c3cccnc3)nc(Nc3nc(-c4cccc(C(F)(F)F)c4)cs3)c2c1` [Compound 449], the IC50 fell in the range of 1000 to 10000 nM. The value for `COc1ccc2nc(-c3cccnc3)nc(Nc3ccc4ccc(=O)[nH]c4c3)c2c1` [Compound 325] was under 1000 nM; that for `COc1ccc2nc(-c3cnccn3)nc(Nc3ccc(F)c(Cl)c3)c2c1` [Compound 1191] was 1000 to 10000 nM. For `COc1ccc2nc(-c3cccnc3)nc(Nc3nc(-c4ccc(C#N)cc4)cs3)c2c1` [Compound 448], the IC50 is under 1000 nM. For `COc1ccc2nc(-c3cccnc3)nc(Nc3nc(CC(C)C)cs3)c2c1` [Compound 460], the IC50 lay within 1000 to 10000 nM.

Consider `CNc1nc(-c2cccnc2)nc2c(C)cc(-c3ccc(C#N)cc3)cc12` [Compound 1279], for which the IC50 was in the range of 1000 to 10000 nM. With `CNc1nc(-c2cccnc2)nc2cc(-c3cc(F)ccc3F)c(C)cc12` [Compound 1406], the IC50 fell in the range of 1000 to 10000 nM. Next, `COc1ccc(OC)c(-c2ccc3nc(-c4cccnc4)nc(Nc4ccc(F)c(Cl)c4)c3c2)c1` [Compound 645]: 1000 to 10000 nM; `CNc1nc(-c2cccnc2)nc2ccc(-c3cccc(OCCOC)c3)cc12` [Compound 1680, 6-(3-(2-methoxyethoxyl)phenyl)-N-methyl-2-(pyridin-3-yl)quinazolin-4-amine]: 1000 to 10000 nM. For the molecule `COc1cncc(-c2ccc3nc(-c4cccnc4)nc(Nc4ccc5[nH]c(=O)sc5c4)c3c2)c1` [Compound 329], the IC50 is under 1000 nM.

For `COc1ccc2nc(-c3ccnnc3)nc(Nc3cccc(OC(F)(F)F)c3)c2c1` [Compound 1188], the IC50 was 1000 to 10000 nM.

For `O=[N+]([O-])c1ccccc1-c1ccc2nc(-c3cccnc3)nc(Nc3ccc(F)c(Cl)c3)c2c1` [Compound 640], the IC50 was 1000 to 10000 nM.

As for `Cc1cc(Cl)cc2c(Nc3ccc(F)c(Cl)c3)nc(-c3cnccn3)nc12` [Compound 1225], the IC50 lay within 1000 to 10000 nM.

With `CNc1nc(-c2cccnc2)nc2ccc(-c3cccc(-c4ccccc4)c3)cc12` [Compound 1346], the 50% inhibitory concentration (IC50) was in the range of 1000 to 10000 nM.
